From patent publication US9451764B2, “Composition comprising insecticide-wax particles” (priority 2010, dated 2016)

Tested on: Blattella germanica
Test: Activity of different insecticides on timber, cement and tile
Assay type: in vivo
Source text: Example e) illustrates that other active ingredients as well can be used successfully in the context of this invention (as a diluted suspension concentration, i.e. as a spraying liquor of the invention). In addition to deltamethrin, both bendiocarb and beta-cyfluthrin and cyfluthrin can be encapsulated.

[1] = 50 mg/m^2 (reduced concentration), Cement
[2] = 50 mg/m^2 (reduced concentration), Tile
[3] = 100 mg/m^2 (standard concentration), Cement, 30-minute exposure
[4] = 100 mg/m^2 (standard concentration), Tile, 30-minute exposure
[5] = 4 mg/m^2 (reduced concentration), Cement
[6] = 4 mg/m^2 (reduced concentration), Tile
[7] = 4 mg/m^2 (reduced concentration), Timber
[8] = 12.5 mg/m^2 (standard concentration), Cement, 30-minute exposure
[9] = 12.5 mg/m^2 (standard concentration), Tile, 30-minute exposure
[10] = 12.5 mg/m^2 (standard concentration), Timber, 30-minute exposure
[11] = 8 mg/m^2 (reduced concentration), Cement
[12] = 8 mg/m^2 (reduced concentration), Tile
[13] = 8 mg/m^2 (reduced concentration), Timber
[14] = 25 mg/m^2 (standard concentration), Cement, 30-minute exposure
[15] = 25 mg/m^2 (standard concentration), Tile, 30-minute exposure
[16] = 25 mg/m^2 (standard concentration), Timber, 30-minute exposure

Which “Knockdown after 1 h” value [1] does the source give for `CNC(=O)Oc1cccc2c1OC(C)(C)O2` [Bendiocarb, bendiocarb] here?
The value was 90%.

And the “Mortality after 24 h” value [1]?
Its value is 100%.

And the “Knockdown after 1 h” value [2]?
Its value is 100%.

What about the “Mortality after 24 h” value [2] of the same compound?
The value was 100%.

What about the “Knockdown after 1 h” value (50 mg/m^2 (reduced concentration), Timber) of the same compound?
The value was 50%.

And the “Knockdown after 1 h” value [3]?
Its value is 100%.

And the “Mortality after 24 h” value [3]?
Its value is 100%.

And the “Knockdown after 1 h” value [4]?
The value was 100%.

What about the “Mortality after 24 h” value [4] of the same compound?
Its value is 100%.

What about the “Knockdown after 1 h” value (100 mg/m^2 (standard concentration), Timber, 30-minute exposure) of the same compound?
The value was 60%.

And the mortality at 50 mg/m2 (Blattella germanica, 24 h, read-out: Mortality after 24 h)?
The mortality at 50 mg/m2 was 100%.

What about the mortality at 100 mg/m2 (Blattella germanica, read-out: Mortality after 24 h) of the same compound?
The mortality at 100 mg/m2 was 100%.

`CC1(C)C(C=C(Cl)Cl)C1C(=O)OC(C#N)c1ccc(F)c(Oc2ccccc2)c1` (stereo not drawn) [Beta-cyfluthrin, beta-cyfluthrin] was tested. Which “Knockdown after 1 h” value [5] did it give?
The value was 100%.

What about the “Mortality after 24 h” value [5] of the same compound?
Its value is 100%.

And the “Knockdown after 1 h” value [6]?
The value was 100%.

And the “Mortality after 24 h” value [6]?
Its value is 100%.

And the “Knockdown after 1 h” value [7]?
The value was 100%.

And the “Mortality after 24 h” value [7]?
The value was 100%.

What about the “Knockdown after 1 h” value [8] of the same compound?
The value was 100%.

What about the “Mortality after 24 h” value [8] of the same compound?
The value was 100%.

And the “Knockdown after 1 h” value [9]?
Its value is 100%.

And the “Mortality after 24 h” value [9]?
Its value is 100%.

What about the “Knockdown after 1 h” value [10] of the same compound?
The value was 100%.

What about the “Mortality after 24 h” value [10] of the same compound?
The value was 100%.

For `CC1(C)[C@H](C(=O)O[C@H](C#N)c2cccc(Oc3ccccc3)c2)[C@@H]1C=C(Br)Br` [Deltamethrin, deltamethrin], which “Knockdown after 1 h” value [5] is on record?
Its value is 100%.

What about the “Mortality after 24 h” value [5] of the same compound?
The value was 100%.

And the “Knockdown after 1 h” value [6]?
Its value is 100%.

What about the “Mortality after 24 h” value [6] of the same compound?
The value was 100%.

What about the “Knockdown after 1 h” value [7] of the same compound?
The value was 100%.

What about the “Knockdown after 1 h” value [8] of the same compound?
The value was 100%.

What about the “Mortality after 24 h” value [8] of the same compound?
Its value is 100%.

What about the “Knockdown after 1 h” value [9] of the same compound?
Its value is 100%.

And the “Mortality after 24 h” value [9]?
The value was 100%.

And the “Knockdown after 1 h” value [10]?
The value was 100%.

And the mortality at 4 mg/m2 (Blattella germanica, 24 h, 4 mg/m^2 (reduced concentration), Timber, read-out: Mortality after 24 h)?
Its mortality at 4 mg/m2 is 100%.

And the mortality at 12.5 mg/m2 (Blattella germanica, 12.5 mg/m^2 (standard concentration), Timber, 30-minute exposure, read-out: Mortality after 24 h)?
Its mortality at 12.5 mg/m2 is 100%.

With `CC1(C)C(C=C(Cl)Cl)C1C(=O)OC(C#N)c1ccc(F)c(Oc2ccccc2)c1` (stereo not drawn) [cyfluthrin] as the compound, how does the “Knockdown after 1 h” value [11] read?
The value was 100%.

And the “Mortality after 24 h” value [11]?
The value was 100%.

What about the “Knockdown after 1 h” value [12] of the same compound?
Its value is 100%.

What about the “Mortality after 24 h” value [12] of the same compound?
Its value is 100%.

And the “Knockdown after 1 h” value [13]?
The value was 100%.

And the “Mortality after 24 h” value [13]?
Its value is 100%.

And the “Knockdown after 1 h” value [14]?
Its value is 100%.

And the “Mortality after 24 h” value [14]?
The value was 100%.

And the “Knockdown after 1 h” value [15]?
Its value is 100%.

And the “Mortality after 24 h” value [15]?
Its value is 100%.

And the “Knockdown after 1 h” value [16]?
Its value is 100%.

What about the “Mortality after 24 h” value [16] of the same compound?
Its value is 100%.
